Assay results taken from BindingDB's records for doi:10.7270/Q2SB445M (Nmmlsc, 2009).

Molecular target: Ras-related protein Rab-7a (Canis lupus familiaris, UniProt P18067)
Assay: Rab7 GTP binding inhibitors, further analogs, SAR follow-up, biochemical, additional analogs, wildtype, multiplex bead flow cytometry (AID 2036)

Sequence of Ras-related protein Rab-7a (P18067 whole entry): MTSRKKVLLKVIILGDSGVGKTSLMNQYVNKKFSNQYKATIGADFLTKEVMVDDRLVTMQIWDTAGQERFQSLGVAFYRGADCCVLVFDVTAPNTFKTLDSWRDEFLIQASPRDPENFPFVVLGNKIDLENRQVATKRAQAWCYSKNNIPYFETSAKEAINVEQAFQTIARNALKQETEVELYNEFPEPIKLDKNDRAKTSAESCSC

Row | SMILES | Ki
1 | O=C1Nc2c(F)cccc2C1=C1Nc2ccccc2C1=O | 1.56 µM
2 | O=C1NC(=S)N/C1=C1\C(=O)Nc2ccccc21 [(3Z)-3-(5-oxo-2-sulfanylideneimidazolidin-4-ylidene)-1H-indol-2-one] | 0.87 µM
